Data on two compounds can be found in US8198441B2, “Process for the preparation of novel pyridopyrazines as mTOR kinase inhibitors” (AstraZeneca AB, priority 2008, dated 2012).

The nature of data set [1]: TIM-1 multi-compartmental in vitro model, bioaccessibility. The data set is classed as in vitro ADME. To be noted: for recovery at 10 mg/mL: TIM-1 multi-compartmental in vitro gastrointestinal model, read-out: Total recovery. The method, then: Bioaccessibility of a compound of Formula 5a in the form of a free base and a fumarate salt was assessed using a TIM-1 multi-compartmental in vitro model (TNO Quality of Life, The Netherlands).
Initial assessment of solutions and suspensions of the free base form at concentrations of 10 mg/mL and doses of 200 mg and 500 mg were performed using a standard protocol (lipid-fasted with starting gastric pH of 2 and a gastric half-time of 30 minutes).
A further study was performed with an increased initial gastric pH of 5 and a reduced gastric half-time of 20 min. In this study, 200 mg (free base equivalent) doses of 10 mg/mL suspensions of the free base and fumarate salt of the compound of Formula 5a were compared (see Table 4, FIG. 8).

Data set [2] can be described thus: Stability study of the fumarate salt in the solid state. The data set is classed as physicochemical. The method, then:
The stability of the fumarate salt of the compound of Formula 5a in the solid state was investigated for samples stored at 25° C./60% relative humidity (RH) in double lined polyethylene bags inside a fibreboard outer for long term stability testing. […] AH (ambient humidity) in double lined polyethylene bags inside fibreboard outers. Further stress testing was performed on exposed samples at 40° C./75% RH and at ambient temperature in a light chamber (exposed to a minimum of 1.2 million lux hours visible light and 200 watt-hours/m^2 UV light), as shown in Table 5.

Like-named read-outs stand apart in the source and are kept apart here.

Take `COc1ccc(-c2ccc3c(N4CCOC[C@@H]4C)nc(N4CCOC[C@@H]4C)nc3n2)cc1CO.O=C(O)/C=C/C(=O)O` [Formula 5a fumarate salt, (5-{2,4-Bis[(3S)-3-methylmorpholin-4-yl]pyrido[2,3-d]pyrimidin-7-yl}-2-methoxyphenyl)methanol Fumarate salt]: the Total recovery in data set [1] (200 mg (free base equivalent) of 10 mg/mL suspension, initial gastric pH 5, gastric half-time 20 min) is on record as 95.12. The “Assay (water and solvent-free, % w/w)” value in data set [2] (1 month, 40° C./75% RH exposed) was determined as 100.3 % w/w; in data set [2] (3 months, 25° C./60% RH), 99.7 % w/w; in data set [2] (3 months, 40° C./75% RH) it was 99.3 % w/w; in data set [2] (3 months, 50° C.), 96.8 % w/w; in data set [2] (10 days, light-exposed), 95.5 % w/w; in data set [2] (Initial) it was 99.4 % w/w. Besides, the “Organic impurities: Largest single impurity (% w/w)” value in data set [2] (1 month, 40° C./75% RH exposed) was found to be 0.16 % w/w; in data set [2] (3 months, 25° C./60% RH) it was 0.16 % w/w; in data set [2] (3 months, 40° C./75% RH), 0.16 % w/w; in data set [2] (3 months, 50° C.), 0.16 % w/w; in data set [2] (10 days, light-exposed) it was 0.97 % w/w; in data set [2] (Initial), 0.16 % w/w. Moreover, the “Total organic impurities (% w/w)” value amounted to 0.36 % w/w in data set [2] (1 month, 40° C./75% RH exposed); 0.31 % w/w in data set [2] (3 months, 25° C./60% RH); 0.26 % w/w in data set [2] (3 months, 40° C./75% RH); 0.44 % w/w in data set [2] (3 months, 50° C.); 2.28 % w/w in data set [2] (10 days, light-exposed); 0.31 % w/w in data set [2] (Initial). For the same compound, the “Water content (% w/w)” value in data set [2] (1 month, 40° C./75% RH exposed) was 5.0 % w/w; in data set [2] (3 months, 25° C./60% RH), 4.5 % w/w; in data set [2] (3 months, 40° C./75% RH), 5.6 % w/w; in data set [2] (3 months, 50° C.), 0.6 % w/w; in data set [2] (10 days, light-exposed) it was 5.0 % w/w; in data set [2] (Initial) it was 3.4 % w/w. For the same compound, in data set [2] (25° C./60% RH, 40° C./75% RH and 50° C. AH, 3 months), the degradation on storage result is “no significant degradation”. The “effect of exposure to light under stress conditions” value in data set [2] (light chamber, minimum 1.2 million lux hours visible and 200 watt-hours/m2 UV) was “darkened on exposed surfaces and a loss of assay and corresponding increase in organic impurities”. Also, the thermal degradation entry in data set [2] (stored at 50° C.) is recorded as “some evidence of thermal degradation”.

With `COc1ccc(-c2ccc3c(N4CCOC[C@@H]4C)nc(N4CCOC[C@@H]4C)nc3n2)cc1CO` [Formula 5a free base, (5-{2,4-bis[(3S)-3-methylmorpholin-4-yl]pyrido[2,3-d]pyrimidin-7-yl}-2-methoxyphenyl)methanol], the recovery at 10 mg/mL in data set [1] (200 mg (free base equivalent), pH 5, 200 mg (free base equivalent) of 10 mg/mL suspension, initial gastric pH 5, gastric half-time 20 min) is 93%; in data set [1] (200 mg, pH 2, 200 mg solution, 10 mg/mL, lipid-fasted, starting gastric pH 2, gastric half-time 30 min) it was 96.8%; in data set [1] (200 mg, pH 2, 200 mg suspension, 10 mg/mL, lipid-fasted, starting gastric pH 2, gastric half-time 30 min), 97.6%; in data set [1] (200 mg, pH 2, Table 4: 200 mg suspension, gastric pH 2), 97.6%; in data set [1] (500 mg, pH 2, 500 mg solution, 10 mg/mL, lipid-fasted, starting gastric pH 2, gastric half-time 30 min), 93.6%; in data set [1] (500 mg, pH 2, 500 mg suspension, 10 mg/mL, lipid-fasted, starting gastric pH 2, gastric half-time 30 min), 91.7%.
